Measured values from US6893829B2, “Human leukocyte 12-lipoxygenase and its role in the pathogenesis of disease states” (City of Hope, priority 1992, dated 2005).
Each block holds one compound with its values, some of them ahead of it.

Columns and labels:
[1] = tested on: ERK; experiment: ERK activity in CHO-AT1a cells; type: cell-based, Chinese hamster; details: 12-HETE 10^−7M, peaks at 5 minutes and 3-4.5 hours
Protocol: ERK activity was evaluated by the substrate-SDS-polyacrylamide gel method described in Anal. Biochem., 183:139-143 (1989). Confluent cells in […] were made quiescent in serum-free medium and then treated with agonists for various time periods. The cells were then lysed in lysis buffer (1% NP40, 1% sodium deoxycholate, 0.1% SDS, 100 mM NaCl, 50 mM Tris, 10 mM EDTA, 1 mM EGTA, aprotinin, […], 0.1 mM PMSF and 1 mM sodium orthovanadate, pH 7.4). Lysates were centrifuged to pellet nuclei and the cell extracts ([…]) were subjected to electrophoresis on SDS-polyacrylamide gels (10%) containing myelin basic protein (0.5 mg/ml) as an ERK substrate. The SDS was then washed, followed by denaturation, renaturation and protein phosphorylation on the gel with [^32P] ATP.
(§1) It has been discovered that the administration of AII results in biphasic activation of MAP kinase (all of the MAP kinase experiments were conducted in CHO-AT1a cells—AII receptor AT1a cDNA transfected Chinese hamster ovary cells).

[2] = tested on: JNK; experiment: JNK activity in CHO-AT1a cells; type: cell-based, Chinese hamster
Protocol: The plasmid pGEX-cJun 1/79 (Dept. Pharmacol. UCSD, La Jolla) is a GST-cJun (1-79) expression vector encoding amino acids (1-79) of cJun. The GST fusion protein expression vector was transformed into E. Coli. Protein was induced with 0.1 mM IPTG and purified by affinity binding to glutathione-agarose beads. Unstimulated or stimulated cells were lysed into WCEB (25 mM HEPES, pH 7.7, 03.M Nacl, 15 mM MgCl2, 02.mM EDTA and 0.1% triton X-100). About 50 μg protein extract was incubated with GST-cJun+GSH agarose overnight at 4° C. Phosphorylation was carried out at 30° C. for 20 minutes in the presence of 20 mM HEPES, pH 7.5, 20 mM b-glycerophosphate, 10 mM p-nitrophenolphosphate, 10 mM MgCl2, 10 mM DDT, 50 μg Na3VO4, 20 μM ATP (cold) and about 0.5 μl of new gamma ^32P-ATP. After boiling with electrophoresis sample buffer, the supernatants were analyzed on 12% SDS-PAGE. JNK activity was also measured by immunoprecipitation method using an anti-JNK antibody (Parmingen Co., San Diego) and then activities were measured using 2 μg of GST-cJun (1-79) as substrate as described in Cell, 81:1147-1157 (1995).
as §1

[3] = tested on: beta sub-unit of the human insulin receptor; experiment: Insulin receptor phosphorylation in rat-1-fibroblasts containing the human insulin receptor; type: cell-based; details: 12-HETE 10^−7M
Protocol: 7. Baicalein, a selective 12-LO inhibitor, can prevent glucose-induced insulin resistance. To perform these studies, applicants cultured rat-1-fibroblasts that have been engineered to contain the human insulin receptor for ten days in high glucose (25 mM). For the last 24 hours, the cells were cultured with 10^−6M baicalein. The marked bands represent the phosphorylated beta sub-unit of the human insulin receptor (FIG. 23). As the band becomes lighter, it represents reduced insulin action. Lane 1 represents the insulin receptor phosphorylation in normal glucose (5.5 mM) vs the reduced insulin action in lane 5 (25 mM glucose).

[4] = tested on: VEGF in vascular smooth muscle cells (VSMC); experiment: VEGF protein, mRNA and secretion in VSMC (Western, Northern, EIA); type: cell-based, Porcine and human
Protocol: In addition to the work reflected in FIGS. 8-10, it has now been discovered that AII, 12-HETE and hyperglycemia (HG) increase VEGF production in vascular smooth muscle cells (VSMC). Porcine and human VSMC were cultured for at least two passages under normal glucose (NG, 5.5 mM) or under HG conditions. VEGF protein expression was determined by Western blotting and VEGF mRNA by Northern blots. HG alone increased the level of VEGF mRNA (2.8-fold) and protein (3.2-fold). […] In addition, HG increased the secretion of VEGF into the medium as measured by a specific EIA (56.2±4 ng/ml NG vs 73±5 HG, p<0.02).

[5] = tested on: smooth muscle cell migration; details: cited from earlier work
[6] = tested on: MO binding to HAEC; experiment: Monocyte binding to human aortic endothelial cells; type: cell-based; details: HAEC in 5.5 mM glucose, 10^−10M; control 66±6
Protocol: The rate of atherosclerosis is accelerated in humans with diabetes mellitus (DM). Applicants recently published evidence that high glucose (HG) exposure of human aortic endothelial cells (HAEC) selectively increases monocyte (MO) but not neutrophil binding (56). HG exposure to EC can increase arachidonic acid (AA) release and lipoxygenase (LO) production formation. In the current study, applicants evaluated the role of 12- and 15-LO products in MO binding to HAEC. Culture of HAEC in HG (25 mM) for two passages increased MO binding compared to cells maintained in 5.5 mM glucose (239±30 cells/field HG vs 111±7, p<0.01). Phenidone (10^−6M), an inhibitor of the 12-LO pathway (50 percent inhibition of HG-induced binding, p<0.05). […] 12(S)-HETE added to HAEC cultured in 5.5 mM glucose increased MO binding (66±6 cells/field control vs 114±4 12-HETE 10^−10M, p<0.01). […] In summary, (1) elevated glucose increases MO binding to HAEC and this effect can be reduced by blockade of the LO pathway; (2) 12 but not 15-LO products, can increase MO binding.

[7] = tested on: JAK1 and JAK2; experiment: JAK activity in CHO-AT1a cells (phosphotyrosine immunoprecipitation, JAK1/JAK2 immunoblot); type: cell-based, Chinese hamster; details: 12-HETE 10^−7M, 10 hours
Protocol: It has further been discovered that 12-HETE induces stimulation of JAK activity. CHO-AT1a cells were treated with 12-HETE (10^−7M) for 10 hours, immunoprecipitated with a phosphotyrosine antibody and immunoblotted using specific JAK1 and JAK2 antibodies.

[8] = tested on: VEGF protein in MCF-7 cells; experiment: VEGF protein expression in breast cancer cells (immunoblot); type: cell-based, human
Protocol: FIG. 8 illustrates the dose-dependent effect of platelet-derived growth factor (PDGF) on vascular endothelial growth factor (VEGF) protein (42 kD) expression in MCF-7 breast cancer cells. Nearly confluent MCF-7 cells were serum starved for 24 hours by placing in DME medium+0.4% FCS and 0.2% BSA. This medium was then freshly replaced and the cells incubated for another 24 hours with PDGF. At the end of the incubation, the cell monolayers were washed with ice-cold PBS, scraped into PBS and pelleted by centrifugation. The cell pellets were then lysed and equal amounts of protein (50 μg) subjected to electrophoresis and immunoblotting to detect VEGF using a specific antibody from Santa Cruz Biotechnology. Detection was by a chemiluminiscent technique.
FIG. 9 illustrates the effect of epidermal growth factor (EGF) and the 12-lipoxygenase product 12-HETE on VEGF protein expression in the MCF-7 breast cancer cell line MCF-7. MCF-7 cells were treated with EGF and 12-HETE for 24 hours and VEGF protein identified as described in the legend to FIG. 8.

[9] = tested on: RINm5F cells; experiment: DNA synthesis (3H-thymidine incorporation) in RINm5F cells; type: cell-based, rat; details: 24 hours, 12-HETE 10^−9M
Protocol: FIG. 11 illustrates the effects of 12-LO products on DNA synthesis in the insulin-producing rat beta cell line, RINm5F. DNA synthesis was studied using ^3H-thymidine incorporation (luCi/ml) added for the last six hours (18-24 hours of experiment). The LO products were added to the cells in complete growth media for 24 hours.
Applicants have discovered that direct addition of the 12-LO products 12-S-HETE or 12-HPETE directly decreases cellular growth as reflected by decreased ^3H thymidine incorporation or DNA synthesis in the rat pure beta cell line RIN-M5F.

[10] = tested on: leukocyte-type 12-LO in PVSMC; experiment: 12-LO activity, mRNA and protein in PVSMC; type: cell-based, porcine; details: 24 hours; for increase in 12-HETE HPLC peak (12-LO enzyme activity): 2.5 ng/ml; for 12-LO mRNA expression in PVSMC: FIG. 14
Protocol: FIG. 14A illustrates the dose-dependent effect of the cytokine interleukin-1β on 12-LO mRNA expression in porcine aortic smooth muscle cells (PVSMC). Confluent PVSMC growth in normal glucose medium was serum depleted for 24 hours by placing in medium+0.2% BSA+0.4% FCS. This medium was then freshly replaced along with IL-1β and the cells incubated for a further 24 hours. At the end of the incubation, total RNA was extracted from the cells using RNA-STAT. This RNA was the subjected to reverse-transcriptase polymerase chain reaction (RT-PCR) to detect and quantitate leukocyte-type 12-LO mRNA (333 bp PCR product, upper panel) using our well established techniques. The expression of GAPDH mRNA 284 bp, lower panel) was used as an internal control for PCR and for quantitation.
FIG. 14B illustrates the effect of the cytokine IL-4 on 12-LO mRNA expression in PVSMC. The ells were treated for 24 hours with IL-4 and 12-LO mRNA quantitated as described in the legend to FIG. 14A. It is clearly seen that IL-4 also increases 12-LO mRNA expression similar to IL-1β.
FIG. 14C illustrates the effect of the cytokine IL-8 on 12-LO mRNA expression in PVSMC. The cells were treated for 24 hours with IL-8 and 12-LO mRNA quantitated as described under legend 14A.
(§2) The cells were cultured in DME (normal glucose) and treated for 24 hours±cytokines in medium containing 0.2% BSA and 0.4% serum. Intracellular 12-LO enzyme activity was measured by HPLC, leukocyte-type 12-LO protein expression by immunoblotting and 12-LO mRNA by a specific reverse transcriptase polymerase chain reaction (RT-PCR). […] Treatment with these cytokines (0.5-5 ng/ml) also led to an increase (1.4-2.5-fold) in 12-LO protein expression 72 kD). In addition, all three cytokines (2.5 ng/ml) could induce a significant increase in PVSMC DNA synthesis (1.280.08, 1.67±0.11 and 1.3±0.07 fold increase in ^3H thymidine incorporation with IL-1, -4, and -8 respectively, p<0.01).

[11] = tested on: PVSMC; experiment: PVSMC DNA synthesis (3H thymidine incorporation); type: cell-based, porcine; details: 2.5 ng/ml
Protocol: as §2

[12] = tested on: VEGF protein in AIHSMC; experiment: VEGF protein expression in immortalized human aortic smooth muscle cell line (AIHSMC); type: cell-based; details: five hours
Protocol: FIG. 10 illustrates the effect of a 12-lipoxygenase product 12-HPETE on VEGF protein (42 kD) expression in an immortalized human aortic smooth muscle cell line (AIHSMC). The cells were serum starved for 24 hours and then placed in fresh medium along with 12-HPETE. Cells were incubated for five hours and VEGF protein was then identified in cell lysed as described in the legend to FIG. 8.

[13] = biological target: leukocyte 12-LO (Sus scrofa, UniProt P16469); details: reference 55; cited from earlier work
[14] = tested on: 12-LO product formation in PVSMC; experiment: 12-HETE in PVSMC cultured in glucosamine (RIA); type: cell-based, porcine; details: glucosamine 7.5 mM
Protocol: Porcine vascular smooth muscles cells (PVSMC) were cultured in the presence of glucosamine (7.5 mM) for 24 hours. New media was then added with glucosamine (7.5 mM) for 25 minutes. The cells and media above the cells were collected and 12-HETE was measured using RIA. A very large increase in 12-HETE release into the media in cells cultured in glucosamine compared to those in normal glucose (6.48±1.2 pg/ml 12-HETE release in normal glucose vs. 20.6±3.6 pg/ml released in glucosamine n=4) was observed. Furthermore, cell associated 12-HETE was higher in glucosamine treated cells (735.9±67 pg/cell incubate normal glucose vs. 1225±112 pg in glucosamine).

Chain of leukocyte 12-LO (P16469 whole entry): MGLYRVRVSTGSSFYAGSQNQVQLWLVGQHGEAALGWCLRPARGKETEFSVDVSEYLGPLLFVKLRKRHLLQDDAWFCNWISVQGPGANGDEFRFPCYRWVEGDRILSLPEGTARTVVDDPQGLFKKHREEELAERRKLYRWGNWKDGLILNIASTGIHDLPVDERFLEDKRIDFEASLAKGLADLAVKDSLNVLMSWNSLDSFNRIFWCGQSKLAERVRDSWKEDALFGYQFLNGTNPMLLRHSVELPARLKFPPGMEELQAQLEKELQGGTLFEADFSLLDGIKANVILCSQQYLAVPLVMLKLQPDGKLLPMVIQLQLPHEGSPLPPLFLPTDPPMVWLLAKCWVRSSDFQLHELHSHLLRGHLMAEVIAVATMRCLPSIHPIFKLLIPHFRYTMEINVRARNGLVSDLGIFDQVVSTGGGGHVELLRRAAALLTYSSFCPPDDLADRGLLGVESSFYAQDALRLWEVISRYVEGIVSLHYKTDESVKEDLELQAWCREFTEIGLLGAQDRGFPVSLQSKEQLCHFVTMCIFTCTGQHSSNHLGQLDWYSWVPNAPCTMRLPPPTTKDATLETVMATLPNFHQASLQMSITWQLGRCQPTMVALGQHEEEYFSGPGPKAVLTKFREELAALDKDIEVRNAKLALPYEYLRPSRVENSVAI

basal insulin receptor phosphorylation [3]: did not directly alter
insulin-induced receptor phosphorylation of the beta subunit [3]: markedly reduced
Compound: CCCCC/C=C\C[C@@H](O)/C=C/C=C\C/C=C\CCCC(=O)O [12-HETE, 12-Hydroxyeicosatetraenoic Acid]
stimulation of ERK activity [1]: biphasic stimulation
stimulation of JNK activity, first peak ([2]; 12-HETE 10^−7M, 30 minutes): 2-3 fold
stimulation of JNK activity, second peak ([2]; 12-HETE 10^−7M, 3 hours): 2.5-5 fold
lowest concentration stimulating JNK activity ([2]; FIG. 29): 10^−9 M
increase in VEGF secretion (EIA) [4]: 1.4 fold
expression of VEGF protein and mRNA ([4]; 12-HETE 10^−8M and 10^−7M, 4 hours, NG and HG): increased the expression
lowest concentration leading to smooth muscle cell migration [5]: 10^−12 M
MO binding [6]: 114±4 cells/field
JAK activity [7]: increased JAK activity
VEGF protein expression ([8]; MCF-7, 24 hours): more potent than EGF
VEGF protein expression ([8]; MCF-7 and MDA MB, 12-HETE 10^−7M and 10^−6M): increases VEGF protein expression
3H-thymidine incorporation (DNA synthesis) [9]: reduced

Compound: IL-8: cytokine IL-8
increase in 12-HETE HPLC peak (12-LO enzyme activity) [10]: 36%
12-LO mRNA expression in PVSMC [10]: dose-dependent increase
increase in 3H thymidine incorporation [11]: 1.3±0.07 fold

Compound: CCCCC/C=C\CC(/C=C/C=C\C/C=C\CCCC(=O)O)OO (stereo not shown) [12-HPETE, 12-Hydroperoxyeicosatetraenoic Acid]
VEGF protein (42 kD) expression [12]: causes an increase
3H-thymidine incorporation (DNA synthesis) [9]: reduced

Compound: C=C[C@H](O)C#CC#CC/C=C\CCCCCCC [Panaxynol]
inhibition of leukocyte 12-LO [13]: relatively selective inhibitor

Compound: N[C@H]1C(O)O[C@H](CO)[C@@H](O)[C@@H]1O (stereo partly shown) [glucosamine]
12-HETE release into the media ([14]; normal glucose 6.48±1.2): 20.6 ± 3.6 pg/mL
cell associated 12-HETE ([14]; normal glucose 735.9±67 pg/cell incubate): 1225 ± 112 pg

Compound: IL-4: cytokine IL-4
increase in 12-HETE HPLC peak (12-LO enzyme activity) [10]: 43%
12-LO mRNA expression in PVSMC [10]: increases
increase in 3H thymidine incorporation [11]: 1.67±0.11 fold
